Data taken from patent publication US20130189764A1, “SELECTIVE GROWTH MEDIA” (Oxide Limited, priority 2000, published 2013).
Values after ≈ are worked out from the molar mass of the structure shown.

How the values were obtained:
[1] = test system: S. aureus OCC 102; assay: growth on nutrient agar, mixed culture with E. faecalis (Example 7); assay type: cell-based, Staphylococcus aureus; conditions: S. aureus in mixed culture with E. faecalis
Text: Example 6 was repeated, this time using a mixed culture of S. aureus OCC 102 and E. faecalis OCC 604, in the presence of AEP or alaphosphin. The empty columns represent growth of S. aureus, the shaded columns represent growth of E. faecalis. […] Thus alaphosphin could be used, when incorporated at an appropriate concentration in a medium, to inhibit growth of organisms such as Enterococci in samples whilst allowing Staphylococci to grow and be detected.

[2] = test system: Enterococcus faecalis 501; assay: MIC in DMSal medium (Example 17); assay type: cell-based; conditions: Enterococcus faecalis, 501
[3] = test system: Salmonella typhimurium OCC 1870; assay: growth on nutrient agar streak plates, pure culture (Example 2); assay type: cell-based; conditions: S. typhimurium OCC 1870, nutrient agar, 0-10 mM tested
Text: Example 1 was repeated, using Salmonella typhimurium OCC 1870 as the test organism. The results are shown in FIG. 3, which uses the same key as FIG. 2.

[4] = test system: Salmonella virchow 703; assay: MIC / growth in DMSal (Example 16); assay type: cell-based; conditions: Salmonella virchow 703, DMSal, 1.5 μg/ml
Method: (§1) The experiments were conducted as follows: nutrient agar medium was autoclaved and, on cooling (but prior to setting) filter-sterilised alaphosphin or AEP were incorporated at final concentrations of 1 mM, 2 mM, 5 mM and 10 mM, and the medium used to pour plates. Control plates were prepared using nutrient agar without alaphosphin or AEP. A single colony of the organism under test was inoculated in 10 ml of nutrient broth and incubated (without agitation) at 37° C. for 4 hours.
(§2) Trp-AEP was compared to alaphosphin (Ala-AEP) for selective growth of Salmonella strains on DMSal agar.

[5] = test system: Klebsiella aerogenes 323; assay: MIC / growth in DMSal (Example 16); assay type: cell-based; conditions: Klebsiella aerogenes 323, DMSal, 1.5 μg/ml
Method: as §1, §2

[6] = test system: Klebsiella pneumoniae 411; assay: MIC / growth in DMSal (Example 16); assay type: cell-based; conditions: Klebsiella pneumoniae 411, DMSal, 1.5 μg/ml
Method: as §1, §2

[7] = test system: Serratia marcescens 217; assay: MIC / growth in DMSal (Example 16); assay type: cell-based; conditions: Serratia marcescens 217, DMSal, 1.5 μg/ml
Method: as §1, §2

[8] = test system: Citrobacter freundii 370; assay: MIC / growth in DMSal (Example 16); assay type: cell-based; conditions: Citrobacter freundii 370, DMSal, 1.5 μg/ml
Method: as §1, §2

[9] = test system: Salmonella enteriditis 723; assay: MIC / growth in DMSal (Example 16); assay type: cell-based; conditions: Salmonella enteriditis 723, DMSal, 1.5 μg/ml
Method: as §1, §2

[10] = test system: Salmonella typhimurium 722; assay: MIC / growth in DMSal (Example 16); assay type: cell-based; conditions: Salmonella typhimurium 722, DMSal, 1.5 μg/ml
Method: as §1, §2

[11] = test system: Salmonella arizonae 1200; assay: MIC / growth in DMSal (Example 16); assay type: cell-based; conditions: Salmonella arizonae 1200, DMSal, 1.5 μg/ml
Method: as §1, §2

[12] = test system: S. indiana OCC 2412 and S. worthington OCC 634; assay: Bioscreen growth in Lab-Lemco broth (Example 11), Salmonella strains; assay type: cell-based; conditions: 64 μg/ml, Lab-Lemco broth pH 5.7, 37° C.
Method: Thus, Ala-AEP was dissolved in deionised water (7.0 mg/ml), filter sterilised, and an amount of the solution added to autoclaved Lab-Lemco broth (20 g/l; pH 5.7) to give a concentration of 70 μg/ml. Volumes (300 μl) of this solution were then pipetted into the wells of Bioscreen microtitre plates and 30 μl quantities of 1 in 10,000 dilutions of overnight cultures added (reducing the final alaphosphin concentration to 64 μg/m). Plates were then covered, incubated at 37° C., and the opacity of the organism suspensions measured using a Bioscreen instrument. Growth of the Salmonella strains was unaffected whereas the E. coli strains were all inhibited.
Typical results are shown in FIG. 16, which is a graph of Optical Density against time (hours). Growth of S. indiana OCC 2412 and S. worthington OCC 634 is denoted by crosses and circles respectively.

[13] = test system: S. aureus OCC 102; assay: growth on nutrient agar, mixed culture with K. pneumoniae (Example 6); assay type: cell-based, Staphylococcus aureus; conditions: S. aureus in mixed culture with K. pneumoniae
Text: Example 1 was repeated, this time using a mixed culture of K. pneumoniae CMCC 3077 and S. aureus OCC 102. The results for growth in the presence of AEP or alaphosphin are shown in FIGS. 7 and 8 respectively: empty columns represent growth of S. aureus, the shaded columns represent growth of K. pneumoniae. […] Accordingly, there is a considerable alaphosphin concentration range over which S. aureus will readily grow whilst K. pneumoniae will be inhibited. Even if K. pneumoniae cells lyse due to the toxic effect of AEP released intracellularly, the AEP is not toxic for S. aureus at the concentrations involved.

[14] = test system: B. subtilis OCC 214; assay: growth on nutrient agar, mixed culture with K. pneumoniae (Example 8); assay type: cell-based, Bacillus subtilis
Text: Example 6 was repeated, this time using a mixed culture of B. subtilis OCC 214 and K. pneumoniae CMCC 3077, in the presence of AEP or alaphosphin. The empty columns show the growth of B. subtilis, the shaded columns denote growth of K. pneumoniae.

[15] = test system: S. aureus (MRSA) 934; assay: MIC in DMSal medium (Example 17); assay type: cell-based; conditions: Staphylococcus aureus, MRSA
Text: (§3) Isoleucyl-AEP and sarcosyl-alanyl-AEP were compared to ala-AEP (all in DMSal medium) for the ability to selectively recover two clinically important pathogenic bacteria: Salmonella and Staphylococcus aureus.

[16] = test system: S. aureus 198; assay: MIC in DMSal medium (Example 17); assay type: cell-based; conditions: Staphylococcus aureus, 198
Text: as §3

[17] = test system: Enterococcus faecalis 640; assay: MIC in DMSal medium (Example 17); assay type: cell-based; conditions: Enterococcus faecalis, 640

C[C@H](N)C(=O)N[C@@H](C)P(=O)(O)O [alaphosphin, L-alanyl-L-1-aminoethylphosphonic acid]
concentration at which growth is inhibited [1]: ≥ 10 mM
MIC [2]: 10 µg/mL (≈ 51 µM)
concentration at which growth is completely inhibited [3]: ≥ 5 mM
growth with Ala-AEP (1.5 μg/ml) [4]: Growth
growth with Ala-AEP (1.5 μg/ml) [5]: Growth
growth with Ala-AEP (1.5 μg/ml) [6]: Growth
growth with Ala-AEP (1.5 μg/ml) [7]: Growth
growth with Ala-AEP (1.5 μg/ml) [8]: Growth
growth with Ala-AEP (1.5 μg/ml) [9]: Growth
growth with Ala-AEP (1.5 μg/ml) [10]: Growth
growth with Ala-AEP (1.5 μg/ml) [11]: Growth
growth (optical density) in presence of the agent [12]: unaffected
concentration at which growth is inhibited [13]: 10 mM
sensitivity of growth (in words) [14]: insensitive
MIC [15]: 25 µg/mL (≈ 127 µM)
MIC [16]: 5 µg/mL (≈ 25.5 µM)
MIC [17]: 10 µg/mL (≈ 51 µM)
